Experimental data as given in paper PMC5218480 (PLoS ONE, 2017).

Tested on: MV-4-11 cells
Assay: Gene expression microarray analysis (Affymetrix PrimeView) and GSEA
Assay type: cell-based, human
Design: RFU PODN (11730768_x_at) / Fold change /veh PODN (11730768_x_at) / RFU LINC00158 (11744669_a_at) / Fold change /veh LINC00158 (11744669_a_at) / RFU DUSP10 (11751237_a_at) / Fold change /veh DUSP10 (11751237_a_at) / RFU ID3 (11757404_x_at) / Fold change /veh ID3 (11757404_x_at) / RFU PLEKHG5 (11737974_s_at) / Fold change /veh PLEKHG5 (11737974_s_at) / RFU LRRC4B (11730491_at) / Fold change /veh LRRC4B (11730491_at) / RFU GIMAP4 (11747438_a_at) / Fold change /veh GIMAP4 (11747438_a_at) / RFU KRT8 (11758183_x_at) / Fold change /veh KRT8 (11758183_x_at) / RFU CNN1 (11734310_a_at) / Fold change /veh CNN1 (11734310_a_at) / RFU VPS37D (11726825_at) / Fold change /veh VPS37D (11726825_at) / RFU C10orf10 (11716522_x_at) / Fold change /veh C10orf10 (11716522_x_at) / RFU KIR2DL2 /// KIR2DL4 /// KIR2DL5A /// KIR2DL5B /// KIR2DS1 /// KIR2DS2 /// KIR2DS3 /// KIR2DS4 /// KIR3DL3 /// KIR3DL3 /// KIR3DS1 (11738374_at) / Fold change /veh KIR2DL2 /// KIR2DL4 /// KIR2DL5A /// KIR2DL5B /// KIR2DS1 /// KIR2DS2 /// KIR2DS3 /// KIR2DS4 /// KIR3DL3 /// KIR3DL3 /// KIR3DS1 (11738374_at) / RFU C1QL1 (11718748_at) / Fold change /veh C1QL1 (11718748_at) / RFU TMPRSS4 (11747572_a_at) / Fold change /veh TMPRSS4 (11747572_a_at) / RFU HAMP (11756126_x_at) / Fold change /veh HAMP (11756126_x_at) / RFU RNFT2 (11725882_a_at) / Fold change /veh RNFT2 (11725882_a_at) / RFU NR4A2 (11747474_a_at) / Fold change /veh NR4A2 (11747474_a_at) / RFU ABCC12 (11746883_a_at) / Fold change /veh ABCC12 (11746883_a_at) / RFU TMEM136 (11760407_x_at) / Fold change /veh TMEM136 (11760407_x_at) / RFU CLDN22 /// WWC2 (11732394_at) / Fold change /veh CLDN22 /// WWC2 (11732394_at) / RFU HLA-DPB1 (11760878_x_at) / Fold change /veh HLA-DPB1 (11760878_x_at) / RFU SPINT1 (11716480_a_at) / Fold change /veh SPINT1 (11716480_a_at) / RFU GAP43 (11754022_s_at) / Fold change /veh GAP43 (11754022_s_at) / RFU A4GNT (11735810_at) / Fold change /veh A4GNT (11735810_at) / RFU PRB3 (11715151_x_at) / Fold change /veh PRB3 (11715151_x_at) / RFU TUBB4B (11761932_at) / Fold change /veh TUBB4B (11761932_at) / RFU CAPN14 (11732068_a_at) / Fold change /veh CAPN14 (11732068_a_at) / RFU TMCC2 (11721928_a_at) / Fold change /veh TMCC2 (11721928_a_at) / RFU IRGQ (11745062_a_at) / Fold change /veh IRGQ (11745062_a_at) / RFU FAM174B (11720279_a_at) / Fold change /veh FAM174B (11720279_a_at) / RFU TMPRSS4 (11748680_a_at) / Fold change /veh TMPRSS4 (11748680_a_at) / RFU FAM212B (11763350_a_at) / Fold change /veh FAM212B (11763350_a_at) / RFU PLEKHG5 (11743358_a_at) / Fold change /veh PLEKHG5 (11743358_a_at) / RFU ZSCAN30 (11745921_a_at) / Fold change /veh ZSCAN30 (11745921_a_at) / RFU CMKLR1 (11741424_a_at) / Fold change /veh CMKLR1 (11741424_a_at) / RFU LOC101060620 /// MAPK8IP1 (11723275_at) / Fold change /veh LOC101060620 /// MAPK8IP1 (11723275_at) / RFU SPTSSB (11747773_x_at) / Fold change /veh SPTSSB (11747773_x_at) / RFU PRSS12 (11739890_at) / Fold change /veh PRSS12 (11739890_at) / RFU BIN1 (11741810_x_at) / Fold change /veh BIN1 (11741810_x_at) / RFU WNT11 (11732464_a_at) / Fold change /veh WNT11 (11732464_a_at) / RFU C10orf10 (11716521_a_at) / Fold change /veh C10orf10 (11716521_a_at) / RFU C5orf56 (11738089_at) / Fold change /veh C5orf56 (11738089_at) / RFU CYB561 (11721691_x_at) / Fold change /veh CYB561 (11721691_x_at) / RFU ANKRD19P (11752326_a_at) / Fold change /veh ANKRD19P (11752326_a_at) / RFU OR2T12 /// OR2T33 /// OR2T8 (11738714_s_at) / Fold change /veh OR2T12 /// OR2T33 /// OR2T8 (11738714_s_at) / RFU VCAN (11748164_a_at) / Fold change /veh VCAN (11748164_a_at) / RFU JSRP1 (11732532_at) / Fold change /veh JSRP1 (11732532_at) / RFU KRTAP10-11 (11738290_x_at) / Fold change /veh KRTAP10-11 (11738290_x_at) / RFU MYO3A (11730013_a_at) / Fold change /veh MYO3A (11730013_a_at) / RFU EBF3 (11725865_a_at) / Fold change /veh EBF3 (11725865_a_at) / RFU CAMK2N1 (11719241_x_at) / Fold change /veh CAMK2N1 (11719241_x_at) / RFU C5orf56 (11738088_a_at) / Fold change /veh C5orf56 (11738088_a_at) / RFU OLFML3 (11715873_a_at) / Fold change /veh OLFML3 (11715873_a_at) / RFU LOC100653217 /// NTM (11731650_a_at) / Fold change /veh LOC100653217 /// NTM (11731650_a_at) / RFU MAPK11 (11762145_a_at) / Fold change /veh MAPK11 (11762145_a_at) / RFU FIZ1 (11724087_x_at) / Fold change /veh FIZ1 (11724087_x_at) / RFU OASL (11726364_x_at) / Fold change /veh OASL (11726364_x_at) / RFU SOX15 (11748057_x_at) / Fold change /veh SOX15 (11748057_x_at) / RFU CD79A (11719716_a_at) / Fold change /veh CD79A (11719716_a_at) / RFU HIST1H1D (11736915_at) / Fold change /veh HIST1H1D (11736915_at) / RFU CASKIN2 (11723855_a_at) / Fold change /veh CASKIN2 (11723855_a_at) / RFU LOC730098 (11760151_x_at) / Fold change /veh LOC730098 (11760151_x_at) / RFU OR4N2 (11742367_at) / Fold change /veh OR4N2 (11742367_at) / RFU PRRT2 (11749266_a_at) / Fold change /veh PRRT2 (11749266_a_at) / RFU SNX32 (11753110_a_at) / Fold change /veh SNX32 (11753110_a_at) / RFU CDHR5 (11726645_a_at) / Fold change /veh CDHR5 (11726645_a_at) / RFU RCAN1 (11760418_a_at) / Fold change /veh RCAN1 (11760418_a_at) / RFU FAM167A (11723789_a_at) / Fold change /veh FAM167A (11723789_a_at) / RFU FAM26E (11764081_at) / Fold change /veh FAM26E (11764081_at) / RFU ISYNA1 (11749810_s_at) / Fold change /veh ISYNA1 (11749810_s_at) / RFU ACY1 (11761880_at) / Fold change /veh ACY1 (11761880_at) / RFU 11764098_at / Fold change /veh 11764098_at / RFU SAMD14 (11745864_x_at) / Fold change /veh SAMD14 (11745864_x_at) / RFU NPB (11741838_a_at) / Fold change /veh NPB (11741838_a_at) / RFU TMPRSS6 (11731388_a_at) / Fold change /veh TMPRSS6 (11731388_a_at) / RFU KRTAP10-2 (11738614_at) / Fold change /veh KRTAP10-2 (11738614_at) / RFU ARHGAP8 /// PRR5-ARHGAP8 (11727945_x_at) / Fold change /veh ARHGAP8 /// PRR5-ARHGAP8 (11727945_x_at) / RFU KRTAP5-7 /// NADSYN1 (11734609_at) / Fold change /veh KRTAP5-7 /// NADSYN1 (11734609_at) / RFU RASL12 (11751679_a_at) / Fold change /veh RASL12 (11751679_a_at) / RFU CDKN2B (11736163_a_at) / Fold change /veh CDKN2B (11736163_a_at) / RFU PRF1 (11729649_at) / Fold change /veh PRF1 (11729649_at) / RFU, ZNF638 /// ZNF638-IT1 / Fold change vs veh, ZNF638 /// ZNF638-IT1 / RFU, PANK3 / Fold change vs veh, PANK3 / RFU, SH3YL1 / Fold change vs veh, SH3YL1 / RFU, ZEB2 / Fold change vs veh, ZEB2 / RFU, NRIP1 / Fold change vs veh, NRIP1 / RFU, PTTG1IP / Fold change vs veh, PTTG1IP / RFU, CAPN2 / Fold change vs veh, CAPN2 / RFU, MED14 / Fold change vs veh, MED14 / RFU, SNORA58 / Fold change vs veh, SNORA58 / RFU, C1orf63 / Fold change vs veh, C1orf63 / RFU, LRRFIP1 / Fold change vs veh, LRRFIP1 / RFU, NDUFAF7 / Fold change vs veh, NDUFAF7 / RFU, SLC12A2 / Fold change vs veh, SLC12A2 / RFU, IBTK / Fold change vs veh, IBTK / RFU, ESF1 / Fold change vs veh, ESF1 / Fold change vs veh, TMEM50B / RFU, TAOK1 / Fold change vs veh, TAOK1 / RFU, ACBD3 / Fold change vs veh, ACBD3 / RFU, TMA16 / Fold change vs veh, TMA16 / RFU, RWDD3 / Fold change vs veh, RWDD3 / RFU, BCAT1 / Fold change vs veh, BCAT1 / RFU, EDEM3 / Fold change vs veh, EDEM3 / RFU, TMEM33 / Fold change vs veh, TMEM33 / RFU, WDR75 / Fold change vs veh, WDR75 / RFU, AHCTF1 / Fold change vs veh, AHCTF1 / RFU, TFRC / Fold change vs veh, TFRC / RFU, ZDHHC17 / Fold change vs veh, ZDHHC17 / RFU, NOM1 / Fold change vs veh, NOM1 / RFU, ARL8B / Fold change vs veh, ARL8B / RFU, ZBTB11 / Fold change vs veh, ZBTB11 / RFU, TAMM41 / Fold change vs veh, TAMM41 / RFU, KIAA1704 /// LOC100996395 / Fold change vs veh, KIAA1704 /// LOC100996395 / RFU, ING1 / Fold change vs veh, ING1 / RFU, TRMT61B / Fold change vs veh, TRMT61B / RFU, FUBP3 / Fold change vs veh, FUBP3 / RFU, TP53 / Fold change vs veh, TP53 / RFU, TNKS2 / Fold change vs veh, TNKS2 / RFU, ZFP14 / Fold change vs veh, ZFP14 / RFU, ACTR2 / Fold change vs veh, ACTR2 / RFU, PPP3R1 / Fold change vs veh, PPP3R1 / RFU, PIK3R1 / Fold change vs veh, PIK3R1 / RFU, HNRNPA1 / Fold change vs veh, HNRNPA1 / RFU, RNF170 / Fold change vs veh, RNF170 / RFU, ZNF28 / Fold change vs veh, ZNF28 / RFU, RNGTT / Fold change vs veh, RNGTT / RFU, OGT / Fold change vs veh, OGT / RFU, BRD1 / Fold change vs veh, BRD1 / RFU, MARS / Fold change vs veh, MARS / RFU, ZNF655 / Fold change vs veh, ZNF655 / RFU, FAHD1 / Fold change vs veh, FAHD1 / RFU, BDP1 / Fold change vs veh, BDP1 / RFU, LRRCC1 / Fold change vs veh, LRRCC1 / RFU, ARID1A / Fold change vs veh, ARID1A / RFU, ZNF146 / Fold change vs veh, ZNF146 / RFU, ZNF330 / Fold change vs veh, ZNF330 / RFU, GPN3 / Fold change vs veh, GPN3 / RFU, C9orf123 / Fold change vs veh, C9orf123 / RFU, N4BP2L2 / Fold change vs veh, N4BP2L2 / RFU, ARFIP1 / Fold change vs veh, ARFIP1 / RFU, FAM179B / Fold change vs veh, FAM179B / RFU, BCL10 / Fold change vs veh, BCL10 / RFU, UHRF1BP1L / Fold change vs veh, UHRF1BP1L / RFU, BET1 / Fold change vs veh, BET1 / RFU, CNOT2 / Fold change vs veh, CNOT2 / RFU, ZNF268 / Fold change vs veh, ZNF268 / Fold change vs veh, ZNF507 / RFU, DGCR2 / Fold change vs veh, DGCR2 / RFU, WDSUB1 / Fold change vs veh, WDSUB1 / Fold change vs veh, HSP90B1 /// MIR3652 / RFU, ADSS / Fold change vs veh, ADSS / RFU, GK / Fold change vs veh, GK / RFU, ZNF148 / Fold change vs veh, ZNF148 / RFU, TAF9 / Fold change vs veh, TAF9 / RFU, SLC1A5 / Fold change vs veh, SLC1A5 / RFU, SLMO2 / Fold change vs veh, SLMO2 / RFU, ABCC4 / Fold change vs veh, ABCC4 / RFU, LOC101060439 /// RAP1B / Fold change vs veh, LOC101060439 /// RAP1B / RFU, RFX7 / Fold change vs veh, RFX7 / RFU, GTPBP10 / Fold change vs veh, GTPBP10 / RFU, CNEP1R1 / Fold change vs veh, CNEP1R1 / RFU, BIVM-ERCC5 /// ERCC5 / Fold change vs veh, BIVM-ERCC5 /// ERCC5 / RFU, ILF3 / Fold change vs veh, ILF3 / RFU 11762660_at / Fold change /veh 11762660_at / RFU VCAN (11757783_s_at) / Fold change /veh VCAN (11757783_s_at) / RFU DDX43 (11728927_at) / Fold change /veh DDX43 (11728927_at) / RFU KRT8 (11758188_x_at) / Fold change /veh KRT8 (11758188_x_at) / RFU NKD1 (11759106_at) / Fold change /veh NKD1 (11759106_at) / RFU SRD5A1 (11742802_a_at) / Fold change /veh SRD5A1 (11742802_a_at) / RFU TPSAB1 /// TPSB2 (11721975_s_at) / Fold change /veh TPSAB1 /// TPSB2 (11721975_s_at) / RFU GSTM3 (11746129_a_at) / Fold change /veh GSTM3 (11746129_a_at) / RFU IL23R (11737362_x_at) / Fold change /veh IL23R (11737362_x_at) / RFU TMEM51 (11727254_a_at) / Fold change /veh TMEM51 (11727254_a_at) / RFU PIWIL2 (11732686_x_at) / Fold change /veh PIWIL2 (11732686_x_at) / RFU ORM1 (11744905_x_at) / Fold change /veh ORM1 (11744905_x_at) / RFU CCDC152 (11743942_at) / Fold change /veh CCDC152 (11743942_at) / RFU ECM1 (11717891_a_at) / Fold change /veh ECM1 (11717891_a_at) / RFU IL23R (11748794_a_at) / Fold change /veh IL23R (11748794_a_at) / RFU TNFAIP8L3 (11732012_x_at) / Fold change /veh TNFAIP8L3 (11732012_x_at) / RFU MBOAT4 (11741988_at) / Fold change /veh MBOAT4 (11741988_at) / RFU 11764193_at / Fold change /veh 11764193_at / RFU TMEM53 (11763286_at) / Fold change /veh TMEM53 (11763286_at) / RFU MAGEB2 (11727129_at) / Fold change /veh MAGEB2 (11727129_at) / RFU TMEM200A (11744735_a_at) / Fold change /veh TMEM200A (11744735_a_at) / RFU CCDC152 (11751479_a_at) / Fold change /veh CCDC152 (11751479_a_at) / RFU FAM211A (11726209_a_at) / Fold change /veh FAM211A (11726209_a_at) / RFU RGS16 (11746705_a_at) / Fold change /veh RGS16 (11746705_a_at) / RFU VCAN (11755009_s_at) / Fold change /veh VCAN (11755009_s_at) / RFU RHOB (11743442_s_at) / Fold change /veh RHOB (11743442_s_at) / RFU RGS16 (11720943_a_at) / Fold change /veh RGS16 (11720943_a_at) / RFU RGS16 (11720944_at) / Fold change /veh RGS16 (11720944_at) / RFU, VPS4B / Fold change vs veh, VPS4B / RFU, CREB1 / Fold change vs veh, CREB1 / RFU, DNAJC13 / Fold change vs veh, DNAJC13 / RFU, GNAQ / Fold change vs veh, GNAQ / RFU, CDK5R1 / Fold change vs veh, CDK5R1 / RFU, ZRANB3 / Fold change vs veh, ZRANB3 / RFU, CUL4A / Fold change vs veh, CUL4A / RFU, CCNY / Fold change vs veh, CCNY / RFU, UFL1 / Fold change vs veh, UFL1 / RFU, COG3 / Fold change vs veh, COG3 / RFU, DIAPH2 / Fold change vs veh, DIAPH2 / RFU, SKA2 / Fold change vs veh, SKA2 / RFU, AFF3 / Fold change vs veh, AFF3 / RFU, LMF1 / Fold change vs veh, LMF1 / RFU, IPO11 / Fold change vs veh, IPO11 / RFU, DFFB / Fold change vs veh, DFFB / RFU, FOXP1 / Fold change vs veh, FOXP1 / RFU, CARD8 / Fold change vs veh, CARD8 / RFU, STRN3 / Fold change vs veh, STRN3 / RFU, ADK / Fold change vs veh, ADK / RFU, RASSF2 / Fold change vs veh, RASSF2 / RFU, WIPF1 / Fold change vs veh, WIPF1 / RFU, LARP1B / Fold change vs veh, LARP1B / RFU, RASA1 / Fold change vs veh, RASA1 / RFU, RB1 / Fold change vs veh, RB1 / RFU, PPFIA1 / Fold change vs veh, PPFIA1 / RFU, MAT2A / Fold change vs veh, MAT2A / RFU, CCT5 / Fold change vs veh, CCT5 / RFU, WDR92 / Fold change vs veh, WDR92 / RFU, CUX1 / Fold change vs veh, CUX1 / RFU, TTC7A / Fold change vs veh, TTC7A / RFU, TMEM135 / Fold change vs veh, TMEM135 / RFU, DEPTOR / Fold change vs veh, DEPTOR / RFU, CPM / Fold change vs veh, CPM / RFU, DNAJB6 / Fold change vs veh, DNAJB6 / RFU, CACNA2D3 / Fold change vs veh, CACNA2D3 / RFU, DTX4 / Fold change vs veh, DTX4 / RFU, TFCP2 / Fold change vs veh, TFCP2 / RFU, GMCL1 /// GMCL1P1 / Fold change vs veh, GMCL1 /// GMCL1P1 / RFU, AEBP2 / Fold change vs veh, AEBP2 / RFU, SNHG1 /// SNORD22 /// SNORD25 /// SNORD26 /// SNORD27 /// SNORD28 /// SNORD29 /// SNORD31 / Fold change vs veh, SNHG1 /// SNORD22 /// SNORD25 /// SNORD26 /// SNORD27 /// SNORD28 /// SNORD29 /// SNORD31 / Fold change (Aza/veh), C12orf56 (ProbeSet 11735607_a_at) / Fold change (ACY-1035/veh), C12orf56 (ProbeSet 11735607_a_at) / Fold change (Aza/veh), FGFR1OP (ProbeSet 11751329_s_at) / Fold change (ACY-1035/veh), FGFR1OP (ProbeSet 11751329_s_at) / Fold change (Aza/veh), VPS36 (ProbeSet 11739960_a_at) / Fold change (ACY-1035/veh), VPS36 (ProbeSet 11739960_a_at) / RFU SYPL1 (11715823_x_at) / Fold change /veh SYPL1 (11715823_x_at) / RFU IGFBP7 (11715501_s_at) / Fold change /veh IGFBP7 (11715501_s_at) / RFU REEP3 (11722064_at) / Fold change /veh REEP3 (11722064_at) / RFU IGLL1 (11728026_x_at) / Fold change /veh IGLL1 (11728026_x_at): dose or concentration left out as unconfirmed
Settings: ProbeSet 11748335_a_at; LIST B

## Nc1ncn([C@@H]2O[C@H](CO)[C@@H](O)[C@H]2O)c(=O)n1 [azacitidine]
  Fold change vs veh, SLMO2: 0.87
